The text below walks through data of patent US11510993B2, “Antibody drug conjugate for anti-inflammatory applications” (Merck Sharp & Dohme Corp., priority 2015, dated 2022).

Data set [1] is described as follows: In vitro stability of drug-linkers in human whole blood (parent and released dexamethasone, LC-MS/MS). The note with it: for Calculated Conc. for dexamethasone in human whole blood: released dexamethasone.
Protocol: General Experimental Procedure Human Blood Incubation Human blood was collected the morning of the experiment from at least 3 individuals using K2EDTA as the anticoagulant. An equal volume from each individual was combined for use in the experiment. The experiment started no more than 2 hours after the blood collection. All drug-linker conjugates were solubilized in DMSO to form each 10 mM stock solution. Dosing solution for each linker was prepared by serial dilution of each stock solution using 1:3 acetonitrile:water. All solutions were kept on ice during the experiment.
Human blood was pre-warmed in a 37° C. water bath in an appropriate volume to collect samples over a time course from 0 through 6 hours. Incubating blood was mixed well just prior to sampling to give a homogenous mixture. Aliquots of blood were removed at appropriate time points, added to cold stopping solution, which was methanol containing an appropriate internal standard, and mixed rigorously. The samples were centrifuged at 4000 RPM for 10 minutes after which equal volumes of the supernatant fractions were diluted with cold deionized water. The samples were then ready for analysis.
(§1) A Thermo LX-2 ultra-performance liquid chromatography system coupled with a Sciex API5000 triple quadrupole mass spectrometer was used for the analysis. The payload and drug-linkers were retained and separated by a C18 column and detected by the mass spectrometer. […] Samples were kept in cold stack set at 5° C.
The nature of data set [2]: In vitro stability of drug-linkers in rat liver lysosomal lysate (parent and released dexamethasone, LC-MS/MS). Particulars: for Calculated Conc. for dexamethasone rat lysomeal lysate: released dexamethasone.
Protocol: Rat Liver lysosomes were available commercially with a pool of 6 animals. All linker compounds were solubilized in DMSO to form each 10 mM stock solution. Dosing solution for each linker was prepared by serial dilution of each stock solution using 1:3 acetonitrile: water. All solutions were kept on ice during the experiment.
Rat lysosomes were pre-warmed in a 37° C. water bath in an appropriate volume to collect samples over a time course from 0 minutes through 6 hours. Incubating lysosomes were mixed well just prior to sampling to give a homogenous mixture. Aliquots of lysosomes were removed at appropriate time points, added to cold stopping solution, which was methanol containing an appropriate internal standard, and mixed rigorously. The samples were centrifuged at 4000 RPM for 10 minutes after which equal volumes of supernatant were diluted with cold deionized water. The samples were ready for analysis.
as §1
The nature of data set [3]: Solubility of drug-linkers in 20% MeCN/H2O. Particulars: tested at a concentration of 10 mg/mL. Type of data set: physicochemical. The procedure: The solubility of exemplary drug-linker conjugates in aqueous solutions was evaluated. Linkers utilized in drug conjugates may have aqueous solubility to enable conjugation in aqueous media amenable to protein solubilization. Furthermore, linkers with aqueous solubility are considered hydrophilic, and may confer to the drug conjugate a reduced propensity to aggregate relative to standard hydrophobic linkers in the literature. The following exemplary drug-linkers were tested in an aqueous solution comprising 20% acetonitrile (MeCN/H2O) for solubility at a concentration of 10 mg/mL.

Regarding `C[C@@H]1C[C@H]2[C@@H]3CCC4=CC(=O)C=C[C@]4(C)[C@@]3(F)[C@@H](O)C[C@]2(C)[C@@]1(O)C(=O)COP(=O)(O)OP(=O)(O)OCCNC(=O)COC1C#CCCCCC1` (stereo partly drawn) [Drug Linker 1-4, 2-(2-(cyclooct-2-yn-1-yloxy)acetamido)ethyl(2-((8 S,9R,10S,11S,13 S,14 S,16R,17R)-9-fluoro-11,17-dihydroxy-10,13,16-trimethyl-3-oxo-6,7,8,9,10,11,12,13,14,15,16,17-dodecahydro-3H-cyclopenta[a]phenanthren-17-yl)-2-oxoethyl) dihydrogen pyrophosphate], the “Calculated Conc. for each compound in human whole blood” value is recorded as 1617 nM in data set [1] (0 m, 37° C.); 1421 nM in data set [1] (1 hr, 37° C.); 1400 nM in data set [1] (6 hr, 37° C.); 3059 nM in data set [1] (Matrix spiking (time 0 sample, blood pretreated with stopping reagent)). Moreover, the “Calculated Conc. for dexamethasone in human whole blood” value is listed as 0 nM in data set [1] (0 m), 0 nM in data set [1] (1 hr), 0 nM in data set [1] (6 hr) and 2 nM in data set [1] (Matrix Spiking). For the same compound, the “Calculated Conc. for each compound in rat lysomal lysate” value in data set [2] (0 m, 37° C.) was 1148.2 nM; in data set [2] (5 m, 37° C.), 158.2 nM; in data set [2] (10 m, 37° C.) it was 19.0 nM; in data set [2] (15 m, 37° C.), 3.7 nM; in data set [2] (Matrix spiking (lysosomes pretreated with stopping reagent)), 2487.3 nM. Besides, the “Calculated Conc. for dexamethasone rat lysomeal lysate” value was 4.7 nM in data set [2] (0 m); 320.7 nM in data set [2] (5 m); 559.4 nM in data set [2] (10 m); 831.7 nM in data set [2] (15 m); 1059.6 nM in data set [2] (30 m); 1148.8 nM in data set [2] (1 hr). For the same compound, the “Calculated Conc. for dexamethasone rat lysomeal lysate” value is on record as 854.5 nM in data set [2] (2 hr), 841.9 nM in data set [2] (3 hr) and 826.6 nM in data set [2] (6 hr). For the same compound, the “Measured Solubility in 20% MeCN/H2O” value in data set [3] is over 10 mg/mL.
